# Assay results from US20250250230A1, “HETEROCYCLIC COMPOUND” (TAKEDA PHARMACEUTICAL COMPANY LIMITED, priority 2022, published 2025).
# Biological target: T1, human orexin type 2 receptor (Homo sapiens, UniProt O43614)
# T1 construct: expressed in transfected cells
# T1 sequence (O43614 1-444): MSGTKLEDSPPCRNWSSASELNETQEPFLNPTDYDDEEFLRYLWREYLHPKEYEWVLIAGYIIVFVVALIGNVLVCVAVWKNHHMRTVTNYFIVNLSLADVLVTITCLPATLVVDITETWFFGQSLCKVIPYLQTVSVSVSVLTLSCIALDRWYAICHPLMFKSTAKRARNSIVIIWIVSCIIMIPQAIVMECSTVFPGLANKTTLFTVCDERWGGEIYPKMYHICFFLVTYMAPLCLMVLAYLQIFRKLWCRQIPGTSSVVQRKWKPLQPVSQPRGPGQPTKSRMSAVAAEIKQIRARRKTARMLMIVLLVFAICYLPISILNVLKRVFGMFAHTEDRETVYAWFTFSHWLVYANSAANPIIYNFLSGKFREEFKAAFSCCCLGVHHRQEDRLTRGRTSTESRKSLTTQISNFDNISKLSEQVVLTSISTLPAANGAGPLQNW
# Test: Measurement of orexin type 2 receptor agonist activity (calcium fluorescence, Fluo-4 AM, FDSS)
# Assay type: cell-based
# Conditions: test compound 3 μM; CHO cells expressing human OX2 receptor; DMSO = 0%, orexin A (human) = 100%
# Summary of the method: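 CHO-K1 cells stably expressing human OX2R were loaded with Fluo-4 AM (30 min 37 °C, 30 min RT) in HEPES-buffered HBSS with 0.1% BSA and probenecid. Calcium fluorescence was followed on FDSS for 2 min after compound addition; activity normalised to DMSO (0%) and 10 nM orexin A (100%).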
row,"OX2R agonist activity (3 μM, %) [%]",Compound
1,96,"CS(=O)(=O)N[C@H]1CCCN(C(=O)C2(F)CC2c2ccccc2-c2c(F)cccc2F)C1 (stereo partly drawn) [Example 325, N-{(3S)-1-[(1R,2R)-2-(2′,6′-difluoro[1,1′-biphenyl]-2-yl)-1-fluorocyclopropane-1-carbonyl]piperidin-3-yl}methanesulfonamide, or N-{(3S)-1-[(1S,2S)-2-(2′,6′-difluoro[1,1′-biphenyl]-2-yl)-1-fluorocyclopropane-1-carbonyl]piperidin-3-yl}methanesulfonamide]"
2,98,"CCS(=O)(=O)NC(C)[C@@H]1CCN1C(=O)[C@@H]1C[C@@]1(F)c1ccccc1-c1c(F)cccc1F (stereo partly drawn) [Example 363, N-[(1R)-1-{(2S)-1-[(1S,2S)-2-(2′,6′-difluoro[1,1′-biphenyl]-2-yl)-2-fluorocyclopropane-1-carbonyl]azetidin-2-yl}ethyl]ethanesulfonamide, or N-[(1S)-1-{(2S)-1-[(1S,2S)-2-(2′,6′-difluoro[1,1′-biphenyl]-2-yl)-2-fluorocyclopropane-1-carbonyl]azetidin-2-yl}ethyl]ethanesulfonamide]"
3,98,"CCS(=O)(=O)NC[C@H]1[C@H](F)CN1C(=O)[C@@H]1C[C@@]1(F)c1ccccc1-c1c(F)cccc1F [Example 417, N-({(2S,3R)-1-[(1S,2S)-2-(2′,6′-difluoro[1,1′-biphenyl]-2-yl)-2-fluorocyclopropane-1-carbonyl]-3-fluoroazetidin-2-yl}methyl)ethanesulfonamide]"
4,94,"O=C([C@@H]1C[C@@]1(F)c1ccc(F)cc1-c1c(F)cccc1F)N1C[C@@H](F)[C@H]1CNS(=O)(=O)C(F)(F)F [Example 449, 1,1,1-trifluoro-N-({(2R,3R)-3-fluoro-1-[(1S,2S)-2-fluoro-2-(2′,5,6′-trifluoro[1,1′-biphenyl]-2-yl)cyclopropane-1-carbonyl]azetidin-2-yl}methyl)methanesulfonamide]"
5,99,"C[C@@H]1CN(C(=O)C2CC2(F)c2c(F)cccc2-c2c(F)cccc2F)[C@@H]1CNS(C)(=O)=O (stereo partly drawn) [Example 395, N-({(2S,3R)-1-[(1R,2R)-2-fluoro-2-(2′,3,6′-trifluoro[1,1′-biphenyl]-2-yl)cyclopropane-1-carbonyl]-3-methylazetidin-2-yl}methyl)methanesulfonamide, or N-({(2S,3R)-1-[(1S,2S)-2-fluoro-2-(2′,3,6′-trifluoro[1,1′-biphenyl]-2-yl)cyclopropane-1-carbonyl]-3-methylazetidin-2-yl}methyl)methanesulfonamide]"
6,96,"CC(NS(C)(=O)=O)[C@@H]1[C@H](F)CN1C(=O)[C@@H]1C[C@@]1(F)c1ccccc1-c1c(F)cccc1F (stereo partly drawn) [Example 415, N-[(1R)-1-{(2R,3R)-1-[(1S,2S)-2-(2′,6′-difluoro[1,1′-biphenyl]-2-yl)-2-fluorocyclopropane-1-carbonyl]-3-fluoroazetidin-2-yl}ethyl]methanesulfonamide, or N-[(1S)-1-{(2R,3R)-1-[(1S,2S)-2-(2′,6′-difluoro[1,1′-biphenyl]-2-yl)-2-fluorocyclopropane-1-carbonyl]-3-fluoroazetidin-2-yl}ethyl]methanesulfonamide]"

# Second part, the compound before the results:
row,Compound,"OX2R agonist activity (3 μM, %) [%]"
1,"CS(=O)(=O)NC1CCCN(C(=O)C2CC2c2sccc2-c2c(F)cccc2F)C1 (racemic) [Example 223, a mixture of rac-N-[(3R)-1-{(1R,2R)-2-[3-(2,6-difluorophenyl)thiophen-2-yl]cyclopropane-1-carbonyl}piperidin-3-yl]methanesulfonamide and rac-N-[(3S)-1-{(1R,2R)-2-[3-(2,6-difluorophenyl)thiophen-2-yl]cyclopropane-1-carbonyl}piperidin-3-yl]methanesulfonamide]",81
2,"CC1(C(=O)N2CCC[C@H](NS(C)(=O)=O)CC2)CC1c1ccccc1-c1c(F)cccc1F (stereo partly drawn) [Example 246, N-{(4S)-1-[(1R,2S)-2-(2′,6′-difluoro[1,1′-biphenyl]-2-yl)-1-methylcyclopropane-1-carbonyl]azepan-4-yl}methanesulfonamide, or N-{(4S)-1-[(1S,2R)-2-(2′,6′-difluoro[1,1′-biphenyl]-2-yl)-1-methylcyclopropane-1-carbonyl]azepan-4-yl}methanesulfonamide]",78
3,"CN(C)S(=O)(=O)N[C@H]1CCN(C(=O)[C@@H]2C[C@H]2c2ccccc2-c2c(F)cccc2F)C1 [Example 289, N′-{(3S)-1-[(1R,2R)-2-(2′,6′-difluoro[1,1′-biphenyl]-2-yl)cyclopropane-1-carbonyl]pyrrolidin-3-yl}-N,N-dimethylsulfuric diamide]",99
4,"CC1(C(=O)N2CC(NS(C)(=O)=O)C(F)(F)C2)CC1c1ccccc1-c1c(F)cccc1F (stereo not drawn) [Example 248, N-{1-[2-(2′,6′-difluoro[1,1′-biphenyl]-2-yl)-1-methylcyclopropane-1-carbonyl]-4,4-difluoropyrrolidin-3-yl}methanesulfonamide optical isomer]",98
5,"CC1(NS(C)(=O)=O)CCCN(C(=O)[C@@H]2C[C@H]2c2ccccc2-c2c(F)cccc2F)CC1 (mixture of isomers) [Example 313, a mixture of N-{(4R)-1-[(1R,2R)-2-(2′,6′-difluoro[1,1′-biphenyl]-2-yl)cyclopropane-1-carbonyl]-4-methylazepan-4-yl}methanesulfonamide and N-{(4S)-1-[(1R,2R)-2-(2′,6′-difluoro[1,1′-biphenyl]-2-yl)cyclopropane-1-carbonyl]-4-methylazepan-4-yl}methanesulfonamide]",97
6,CC1CC(NS(C)(=O)=O)CN(C(=O)C2CC2c2ccccc2-c2c(F)cccc2F)C1 (racemic) [Example 158],106
7,"CS(=O)(=O)N[C@H]1CCN(C(=O)[C@@H]2C[C@H]2c2ccccc2-c2c(F)cccc2F)C1 [Example 23, N-{(3S)-1-[(1R,2R)-2-(2′,6′-difluoro[1,1′-biphenyl]-2-yl)cyclopropane-1-carbonyl]pyrrolidin-3-yl}methanesulfonamide]",105
8,"CS(=O)(=O)NC1CCCN(C(=O)C2CC2c2cccc(F)c2-c2ccccc2F)CC1 (racemic) [Example 106, a mixture of rac-N-{(4R)-1-[(1R,2R)-2-(2′,6-difluoro[1,1′-biphenyl]-2-yl)cyclopropane-1-carbonyl]azepan-4-yl}methanesulfonamide and rac-N-{(4S)-1-[(1R,2R)-2-(2′,6-difluoro[1,1′-biphenyl]-2-yl)cyclopropane-1-carbonyl]azepan-4-yl}methanesulfonamide]",63
9,"CS(=O)(=O)NC1CCN(C(=O)C2CC2c2ccccc2-c2c(F)cccc2F)CCC1(F)F (racemic) [Example 212, a mixture of rac-N-{(4R)-1-[(1R,2R)-2-(2′,6′-difluoro[1,1′-biphenyl]-2-yl)cyclopropane-1-carbonyl]-5,5-difluoroazepan-4-yl}methanesulfonamide and rac-N-{(4S)-1-[(1R,2R)-2-(2′,6′-difluoro[1,1′-biphenyl]-2-yl)cyclopropane-1-carbonyl]-5,5-difluoroazepan-4-yl}methanesulfonamide]",91
10,"O=C(C1CC1c1ccccc1-c1c(F)cccc1F)N1CCCCC(NS(=O)(=O)C2CC2)C1 (racemic) [Example 161, a mixture of rac-N-{(3R)-1-[(1R,2R)-2-(2′,6′-difluoro[1,1′-biphenyl]-2-yl)cyclopropane-1-carbonyl]azepan-3-yl}cyclopropanesulfonamide and rac-N-{(3S)-1-[(1R,2R)-2-(2′,6′-difluoro[1,1′-biphenyl]-2-yl)cyclopropane-1-carbonyl]azepan-3-yl}cyclopropanesulfonamide]",99
11,"CS(=O)(=O)NC1CCCN(C(=O)C2CC2c2ccc(F)cc2-c2ccccc2)CC1 (racemic) [Example 87, a mixture of rac-N-{(4R)-1-[(1R,2R)-2-(5-fluoro[1,1′-biphenyl]-2-yl)cyclopropane-1-carbonyl]azepan-4-yl}methanesulfonamide and rac-N-{(4S)-1-[(1R,2R)-2-(5-fluoro[1,1′-biphenyl]-2-yl)cyclopropane-1-carbonyl]azepan-4-yl}methanesulfonamide]",81
12,"CCS(=O)(=O)NC12CC1CN(C(=O)C1CC1c1ccccc1-c1c(F)cccc1F)C2 (racemic) [Example 237, a mixture of rac-N-{(1S,5R)-3-[(1R,2R)-2-(2′,6′-difluoro[1,1′-biphenyl]-2-yl)cyclopropane-1-carbonyl]-3-azabicyclo[3.1.0]hexan-1-yl}ethanesulfonamide and rac-N-{(1R,5S)-3-[(1R,2R)-2-(2′,6′-difluoro[1,1′-biphenyl]-2-yl)cyclopropane-1-carbonyl]-3-azabicyclo[3.1.0]hexan-1-yl}ethanesulfonamide]",99
13,"CS(=O)(=O)NC1CCCN(C(=O)C2CC2c2cnccc2-c2c(F)cccc2F)CC1 (racemic) [Example 206, a mixture of rac-N-[(4R)-1-{(1R,2R)-2-[4-(2,6-difluorophenyl)pyridin-3-yl]cyclopropane-1-carbonyl}azepan-4-yl]methanesulfonamide and rac-N-[(4S)-1-{(1R,2R)-2-[4-(2,6-difluorophenyl)pyridin-3-yl]cyclopropane-1-carbonyl}azepan-4-yl]methanesulfonamide]",87
